How the values were obtained:
[1] = molecular target: T1, Src (p60^c-src) (Homo sapiens, UniProt P12931); assay: SRC-Inhibitor-Assay, time-resolved fluorescence kinase assay (Src); format: biochemical; conditions: ATP 5 μM; peptide 10 μM; enzyme 2.5 U/ml; pre-incubated 15 min at 15° C.
T1 construct: purchased UBI, Upstate Biotech, Inc
Source text: (§1) The activity of the compounds according to this invention as inhibitors for the src-family tyrosine kinases was shown by using the following assay.
(§2) SRC-Inhibitor-Assay Parameters:
(§3) Eu-labelled Phosphotyrosine Antibody: for Lck Cisbio Mab PT66-K, • for Src EG&G Wallac PT66 Eu-W1024 (all commercially available).
(§4) Peptides: Ro: NH2-A-E-E-E-I-Y-G-E-F-E-A-K-K-K-K-CONH2, and • Ja133-Ro: Ja133-G-Aminocaprylic acid-A-E-E-E-I-Y-G-E-F-E-A-K-K-K-K-CONH2, wherein Ja133 is LightCycler-Red 640-N-hydroxy succinimide ester; • whereby both peptides were synthesized by an optimized solid phase peptide synthesis protocol (Merrifield, Fed. Proc. Fed. Amer. Soc. Exp. Biol. 21 (1962) 412) on a Zinsser SMP350 peptide synthesizer. Shortly, the peptide was assembled on 160 mg (22.8 μmol scale) of a Rink-Linker modified polystyrene solid phase by repeatedly conjugating an twenty fold excess of amino acids each protected by temporary piperidine labile Fmoc- and permanent acid labile tert-Bu—, BOC- and O-tert-Bu-groups depending on the side chain function. The substrate sequence AEEEIYGEFEAKKKK was N-terminal additionally mounted with the spacer amino acids Aminocaprylic acid and Glycin. After cleavage of the N-terminal temporary protecting group the still attached and protected peptide was labeled with a 1.5 fold amount of LightCycler-Red 640-N-hydroxy succinimide ester (purchased from Roche Diagnostics GmbH) and triethylamine. After 3 hrs. the resin was washed with Dimethylformamide and Isopropanol until the eluates of the blue resin got colourless. […] The substrate was finally isolated by a preparative reverse phase HPLC purification. The purification yielded 12.2 mg RP-HPLC single peak pure blue material (lyophilisate). The identity was proven by MALDI mass spectroscopy [2720.0].
(§5) Enzymes: Upstate Lck (p56^lck, active), Upstate Src (p60^c-src, partially purified) were purchased from UBI, Upstate Biotech, Inc.
(§6) Time-resolved Fluorescence Assay: Reader: Perkin Elmer, Wallac Viktor 1420-040 multilabel counter; Liquid handling system: Beckman Coulter, Biomek 2000.
(§7) ATP, Tween™ 20, 4-(2-hydroxyethyl)-1-piperazineethanesulfonic acid (HEPES) were purchased from Roche Molecular Biochemicals, MgCl2 and MnCl2 were purchased from Merck Eurolab, Tris(2-carboxyethyl)phosphine hydrochloride (TCEP) was purchased from Pierce, 384 Well low volume fluorescence plates was purchased from Falcon.
(§8) At first the enzyme is pre-incubated for 15 min. at 15° C. in aqueous solution with corresponding amounts of inhibitors according to this invention. Then the phosphorylation reaction is started by adding a reaction mixture, containing ATP, Peptide and PT66, and subsequent shaking. The proceeding of this reaction is immediately monitored using time resolved fluorescence spectroscopy in a suitable well plate reader.
(§9) The IC50-values can be obtained from the reaction rates by using a non-linear curve fit (XLfit software (ID Business Solution Ltd., Guilford, Surrey, UK))

[2] = molecular target: T2, Lck (p56^lck) (Homo sapiens, UniProt P06239); assay: SRC-Inhibitor-Assay, time-resolved fluorescence kinase assay (Lck); format: biochemical; conditions: ATP 5 μM; peptide 10 μM; enzyme 2.5 U/ml; pre-incubated 15 min at 15° C.
T2 construct: purchased UBI, Upstate Biotech, Inc
Source text: as §1, §2, §3, §4, §5, §6, §7, §8, §9

T1 sequence (P12931 whole entry): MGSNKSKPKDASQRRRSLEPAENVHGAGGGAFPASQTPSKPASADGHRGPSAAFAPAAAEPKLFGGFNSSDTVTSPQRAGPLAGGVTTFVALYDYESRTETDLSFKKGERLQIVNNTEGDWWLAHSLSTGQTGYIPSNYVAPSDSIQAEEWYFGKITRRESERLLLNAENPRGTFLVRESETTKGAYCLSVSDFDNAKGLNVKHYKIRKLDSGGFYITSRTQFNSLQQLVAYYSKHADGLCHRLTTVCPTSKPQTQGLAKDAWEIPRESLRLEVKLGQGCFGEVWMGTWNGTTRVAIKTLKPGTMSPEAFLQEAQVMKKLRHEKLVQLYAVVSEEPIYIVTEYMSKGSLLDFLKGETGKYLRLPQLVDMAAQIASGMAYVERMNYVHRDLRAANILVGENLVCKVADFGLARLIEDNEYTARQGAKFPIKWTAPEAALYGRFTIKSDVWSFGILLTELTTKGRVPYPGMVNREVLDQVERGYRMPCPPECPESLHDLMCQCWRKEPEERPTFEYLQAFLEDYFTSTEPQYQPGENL
T2 sequence (P06239 whole entry, species assumed): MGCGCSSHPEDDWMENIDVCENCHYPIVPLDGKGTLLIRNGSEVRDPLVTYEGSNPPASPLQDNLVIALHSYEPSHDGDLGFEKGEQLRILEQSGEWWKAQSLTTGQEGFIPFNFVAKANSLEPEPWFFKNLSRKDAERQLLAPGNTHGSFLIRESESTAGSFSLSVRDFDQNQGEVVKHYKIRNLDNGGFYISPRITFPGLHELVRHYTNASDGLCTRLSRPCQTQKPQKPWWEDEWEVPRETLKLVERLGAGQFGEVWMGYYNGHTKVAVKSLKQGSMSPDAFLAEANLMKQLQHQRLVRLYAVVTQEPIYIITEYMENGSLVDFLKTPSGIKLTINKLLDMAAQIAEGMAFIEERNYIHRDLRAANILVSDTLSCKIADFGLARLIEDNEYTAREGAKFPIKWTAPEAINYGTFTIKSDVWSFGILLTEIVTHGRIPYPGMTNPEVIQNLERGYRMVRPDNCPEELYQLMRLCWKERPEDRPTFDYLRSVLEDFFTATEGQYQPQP

CC(=O)Nc1cccc(Nc2ncc3cc(-c4ccccc4C)c(C(=O)NC[C@H]4CCCN4)nc3n2)c1 [Example 1, (R)-2-(3-Acetylamino-phenylamino)-6-o-tolyl-pyrido[2,3-d]pyrimidine-7-carboxylic acid (pyrrolidin-2-ylmethyl)-amide]
IC50 [1]: 0.7 nM | IC50 [2]: 8 nM

CS(=O)(=O)NCCNC(=O)c1nc2nc(Nc3ccc4c(c3)S(=O)(=O)CCO4)ncc2cc1-c1ccccc1C(F)(F)F [Example 2, 2-(4,4-Dioxo-3,4-dihydro-2H-4lambda*6*-benzo[1,4]oxathiin-6-ylamino)-6-(2-trifluoromethyl-phenyl)-pyrido[2,3-d]pyrimidine-7-carboxylic acid (2-methanesulfonylamino-ethyl)-amide]
IC50 [1]: 5 to 50 nM | IC50 [2]: 20 to 50 nM

CC(=O)Nc1cccc(Nc2ncc3cc(-c4ccccc4C)c(C(=O)NCCNS(C)(=O)=O)nc3n2)c1 [Example 3, 2-(3-Acetylamino-phenylamino)-6-o-tolyl-pyrido[2,3-d]pyrimidine-7-carboxylic acid (2-methanesulfonylamino-ethyl)-amide]
IC50 [1]: 1 nM | IC50 [2]: 11.8 nM

Cc1ccccc1-c1cc2cnc(Nc3ccc(N4CCOCC4)cc3)nc2nc1C(=O)NCCNS(C)(=O)=O [Example 5, 2-(4-Morpholin-4-yl-phenylamino)-6-o-tolyl-pyrido[2,3-d]pyrimidine-7-carboxylic acid (2-methanesulfonylamino-ethyl)-amide]
IC50 [1]: 0.5 to 5 nM | IC50 [2]: 1 to 20 nM

Cc1ccccc1-c1cc2cnc(Nc3ccc(N4CCOCC4)cc3)nc2nc1C(=O)NC[C@H]1CCCN1 [Example 7, (R)-2-(4-Morpholin-4-yl-phenylamino)-6-o-tolyl-pyrido[2,3-d]pyrimidine-7-carboxylic acid (pyrrolidin-2-ylmethyl)-amide]
IC50 [1]: 0.5 to 5 nM | IC50 [2]: 1 to 20 nM

CNCCNC(=O)c1nc2nc(Nc3cccc(NC(C)=O)c3)ncc2cc1-c1ccccc1C [Example 8, 2-(3-Acetylamino-phenylamino)-6-o-tolyl-pyrido[2,3-d]pyrimidine-7-carboxylic acid (2-methylamino-ethyl)-amide]
IC50 [1]: 0.5 to 5 nM | IC50 [2]: 1 to 20 nM

CNCCNC(=O)c1nc2nc(Nc3cccc(NS(C)(=O)=O)c3)ncc2cc1-c1ccccc1C [Example 9, 2-(3-Methanesulfonylamino-phenylamino)-6-o-tolyl-pyrido[2,3-d]pyrimidine-7-carboxylic acid (2-methylamino-ethyl)-amide]
IC50 [1]: 0.5 to 5 nM | IC50 [2]: 1 to 20 nM

CS(=O)(=O)NCCNC(=O)c1nc2nc(Nc3ccc(N4CCOCC4)cc3)ncc2cc1-c1ccccc1C(F)(F)F [Example 11, 2-(4-Morpholin-4-yl-phenylamino)-6-(2-trifluoromethyl-phenyl)-pyrido[2,3-d]pyrimidine-7-carboxylic acid (2-methanesulfonylamino-ethyl)-amide]
IC50 [1]: 0.5 to 5 nM | IC50 [2]: 1 to 20 nM

O=C(NC[C@H]1CCCN1)c1nc2nc(Nc3ccc(N4CCOCC4)cc3)ncc2cc1-c1ccccc1C(F)(F)F [Example 14, (R)-2-(4-Morpholin-4-yl-phenylamino)-6-(2-trifluoromethyl-phenyl)-pyrido[2,3-d]pyrimidine-7-carboxylic acid (pyrrolidin-2-ylmethyl)-amide]
IC50 [1]: 0.5 to 5 nM | IC50 [2]: 1 to 20 nM

CC(=O)Nc1cccc(Nc2ncc3cc(-c4ccccc4C(F)(F)F)c(C(=O)NC[C@H]4CCCN4)nc3n2)c1 [Example 15, (R)-2-(3-Acetylamino-phenylamino)-6-(2-trifluoromethyl-phenyl)-pyrido[2,3-d]pyrimidine-7-carboxylic acid (pyrrolidin-2-ylmethyl)-amide]
IC50 [1]: 0.5 to 5 nM | IC50 [2]: 1 to 20 nM

O=C(NC[C@H]1CCCN1)c1nc2nc(Nc3ccc4c(c3)S(=O)(=O)CCO4)ncc2cc1-c1ccccc1C(F)(F)F [Example 17, (R)-2-(4,4-Dioxo-3,4-dihydro-2H-4lambda*6*-benzo[1,4]oxathiin-6-ylamino)-6-(2-trifluoromethyl-phenyl)-pyrido[2,3-d]pyrimidine-7-carboxylic acid (pyrrolidin-2-ylmethyl)-amide]
IC50 [1]: 5 to 50 nM | IC50 [2]: 20 to 50 nM

Source: patent publication US7550589B2, “6-(2-alkyl-phenyl)-pyrido[2,3-D]pyrimidines useful as protein kinase inhibitors” (Hoffman-La Roche Inc., priority 2004, dated 2009)
